Measured values from patent publication US12421211B2, “Heterocyclic compounds” (Hoffmann-La Roche Inc., priority 2021, dated 2025).
Counter-ions that a name gives are not always drawn.

system: Acinetobacter baumannii ATCC17961; assay: Antimicrobial susceptibility testing: 90% growth inhibitory concentration (IC90) determination; format: cell-based; settings: Acinetobacter baumannii, ATCC17961, 16 h, 90% growth inhibitory concentration, Acinetobacter baumannii ATCC17961, Iso-Sensitest broth, OD 600 nm over 16 h; read-out: ATCC 17961 IC90
Method in brief: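 A. baumannii ATCC17961 at ~5×10^5 CFU/ml in Iso-Sensitest broth exposed to 10-point twofold dilutions (e.g. 50–0.097 μM final), 35±2° C. OD600 read every 20 minutes over 16h; IC50 and IC90 derived from inhibition during logarithmic growth.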

Row | IC90 | Structure (SMILES)
1 | 1100 nM | Cc1nn(CCn2ccccc2=O)cc1-c1ccc(-c2cnc(C(=O)Nc3ccc(C(=O)N4CCN(C(=O)C5CC[N+](C)(C)CC5)CC4)c(Cl)c3)n2C)c(F)c1F [Example F46, N-[3-chloro-4-[4-(1,1-dimethylpiperidin-1-ium-4-carbonyl)piperazine-1-carbonyl]phenyl]-5-[2,3-difluoro-4-[3-methyl-1-[2-(2-oxo-1-pyridyl)ethyl]pyrazol-4-yl]phenyl]-1-methyl-imidazole-2-carboxamide; formate]
2 | 530 nM | Cn1cc(-c2n[nH]cc2-c2ccc(-c3cnc(C(=O)Nc4ccc(C(=O)N5CCN(C(=O)C6CC[N+](C)(C)CC6)CC5)c(Cl)c4)n3C)c(F)c2F)cn1 [Example F47, N-[3-chloro-4-[4-(1,1-dimethylpiperidin-1-ium-4-carbonyl)piperazine-1-carbonyl]phenyl]-5-[2,3-difluoro-4-[3-(1-methylpyrazol-4-yl)-1H-pyrazol-4-yl]phenyl]-1-methyl-imidazole-2-carboxamide; formate]
3 | 470 nM | Cn1c(-c2ccc(-c3c[nH]nc3-c3cn[nH]c3)c(F)c2F)cnc1C(=O)Nc1ccc(C(=O)N2CCN(C(=O)C3CC[N+](C)(C)CC3)CC2)c(Cl)c1 [Example F48, N-[3-chloro-4-[4-(1,1-dimethylpiperidin-1-ium-4-carbonyl)piperazine-1-carbonyl]phenyl]-5-[2,3-difluoro-4-[3-(1H-pyrazol-4-yl)-1H-pyrazol-4-yl]phenyl]-1-methyl-imidazole-2-carboxamide; formate]
4 | 1100 nM | Cc1nn(-c2ccccn2)cc1-c1ccc(-c2cnc(C(=O)Nc3ccc(C(=O)N4CCN(C(=O)C5CC[N+](C)(C)CC5)CC4)c(Cl)c3)n2C)c(F)c1F [Example F50, N-[3-chloro-4-[4-(1,1-dimethylpiperidin-1-ium-4-carbonyl)piperazine-1-carbonyl]phenyl]-5-[2,3-difluoro-4-[3-methyl-1-(2-pyridyl)pyrazol-4-yl]phenyl]-1-methyl-imidazole-2-carboxamide; formate]
5 | 210 nM | Cc1n[nH]cc1-c1ccc(-c2cnc(C(=O)Nc3ccc(C(=O)N4CCN(C(=O)C[N+](C)(C)C)CC4)c(Cl)c3)n2C)cc1 [Example F51, [2-[4-[2-chloro-4-[[1-methyl-5-[4-(3-methyl-1H-pyrazol-4-yl)phenyl]imidazole-2-carbonyl]amino]benzoyl]piperazin-1-yl]-2-oxo-ethyl]-trimethyl-ammonium; formate]
6 | 270 nM | Cc1n[nH]c(C)c1-c1ccc(-c2cnc(C(=O)Nc3ccc(C(=O)N4CCN(C(=O)C[N+](C)(C)C)CC4)c(Cl)c3)n2C)cc1 [Example F52, [2-[4-[2-chloro-4-[[5-[4-(3,5-dimethyl-1H-pyrazol-4-yl)phenyl]-1-methyl-imidazole-2-carbonyl]amino]benzoyl]piperazin-1-yl]-2-oxo-ethyl]-trimethyl-ammonium; 2,2,2-trifluoroacetate]
7 | 590 nM | COc1cccc(CCn2cc(-c3ccc(-c4cnc(C(=O)Nc5ccc(C(=O)N6CCN(C(=O)C7CC[N+](C)(C)CC7)CC6)c(Cl)c5)n4C)c(F)c3F)c(C)n2)n1 [Example F54, N-[3-chloro-4-[4-(1,1-dimethylpiperidin-1-ium-4-carbonyl)piperazine-1-carbonyl]phenyl]-5-[2,3-difluoro-4-[1-[2-(6-methoxy-2-pyridyl)ethyl]-3-methyl-pyrazol-4-yl]phenyl]-1-methyl-imidazole-2-carboxamide; formate]
8 | 270 nM | COc1cccc(Cn2cc(-c3ccc(-c4cnc(C(=O)Nc5ccc(C(=O)N6CCN(C(=O)C7CC[N+](C)(C)CC7)CC6)c(Cl)c5)n4C)c(F)c3F)c(C)n2)n1 [Example F55, N-[3-chloro-4-[4-(1,1-dimethylpiperidin-1-ium-4-carbonyl)piperazine-1-carbonyl]phenyl]-5-[2,3-difluoro-4-[1-[(6-methoxy-2-pyridyl)methyl]-3-methyl-pyrazol-4-yl]phenyl]-1-methyl-imidazole-2-carboxamide; formate]
9 | 330 nM | Cc1nn(Cc2c[nH]nn2)cc1-c1ccc(-c2cnc(C(=O)Nc3ccc(C(=O)N4CCN(C(=O)C5CC[N+](C)(C)CC5)CC4)c(Cl)c3)n2C)c(F)c1F [Example F56, N-[3-chloro-4-[4-(1,1-dimethylpiperidin-1-ium-4-carbonyl)piperazine-1-carbonyl]phenyl]-5-[2,3-difluoro-4-[3-methyl-1-(1H-triazol-4-ylmethyl)pyrazol-4-yl]phenyl]-1-methyl-imidazole-2-carboxamide; formate]
10 | 880 nM | COCCn1ncc(-c2ccc(-c3cnc(C(=O)Nc4ccc(C(=O)N5CCN(C(=O)C6CC[N+](C)(C)CC6)CC5)c(Cl)c4)n3C)c(F)n2)c1C [Example F57, N-[3-chloro-4-[4-(1,1-dimethylpiperidin-1-ium-4-carbonyl)piperazine-1-carbonyl]phenyl]-5-[2-fluoro-6-[1-(2-methoxyethyl)-5-methyl-pyrazol-4-yl]-3-pyridyl]-1-methyl-imidazole-2-carboxamide; formate]
11 | 480 nM | Cc1nn(CCCC#N)c(C)c1-c1ccc(-c2cnc(C(=O)Nc3ccc(C(=O)N4CCN(C(=O)[C@@H]5C[C@@H](O)C[N+]5(C)C)CC4)c(Cl)c3)n2C)c(F)c1F [Example F58, N-[3-chloro-4-[4-[(2S,4R)-4-hydroxy-1,1-dimethyl-pyrrolidin-1-ium-2-carbonyl]piperazine-1-carbonyl]phenyl]-5-[4-[1-(3-cyanopropyl)-3,5-dimethyl-pyrazol-4-yl]-2,3-difluoro-phenyl]-1-methyl-imidazole-2-carboxamide; formate]
12 | 750 nM | COc1ccc(-c2[nH]ncc2-c2ccc(-c3cnc(C(=O)Nc4ccc(C(=O)N5CCN(C(=O)C6CC[N+](C)(C)CC6)CC5)c(Cl)c4)n3C)c(F)n2)cc1 [Example F59, N-[3-chloro-4-[4-(1,1-dimethylpiperidin-1-ium-4-carbonyl)piperazine-1-carbonyl]phenyl]-5-[2-fluoro-6-[5-(4-methoxyphenyl)-1H-pyrazol-4-yl]-3-pyridyl]-1-methyl-imidazole-2-carboxamide; formate]
13 | 560 nM | Cn1c(-c2ccc(-c3ccc(NCCC(N)=O)cn3)c(F)c2F)cnc1C(=O)Nc1ccc(C(=O)N2CCN(C(=O)C3CC[N+](C)(C)CC3)CC2)c(Cl)c1 [Example F63, 5-[4-[5-[(3-amino-3-oxo-propyl)amino]-2-pyridyl]-2,3-difluoro-phenyl]-N-[3-chloro-4-[4-(1,1-dimethylpiperidin-1-ium-4-carbonyl)piperazine-1-carbonyl]phenyl]-1-methyl-imidazole-2-carboxamide; formate]
14 | 250 nM | Cc1cc(N)cnc1-c1ccc(-c2cnc(C(=O)Nc3ccc(C(=O)N4CCN(C(=O)C5CC[N+](C)(C)CC5)CC4)c(Cl)c3)n2C)c(F)c1F [Example F64, 5-[4-(5-amino-3-methyl-2-pyridyl)-2,3-difluoro-phenyl]-N-[3-chloro-4-[4-(1,1-dimethylpiperidin-1-ium-4-carbonyl)piperazine-1-carbonyl]phenyl]-1-methyl-imidazole-2-carboxamide; formate]
15 | 370 nM | Cn1c(-c2ccc(-c3ccc(N)cn3)c(F)c2F)cnc1C(=O)Nc1ccc(C(=O)N2CCN(C(=O)C3CC[N+](C)(C)CC3)CC2)c(Cl)c1 [Example F65, 5-[4-(5-amino-2-pyridyl)-2,3-difluoro-phenyl]-N-[3-chloro-4-[4-(1,1-dimethylpiperidin-1-ium-4-carbonyl)piperazine-1-carbonyl]phenyl]-1-methyl-imidazole-2-carboxamide; formate]
